Reference: publication PMC10761937, “Functional engineering of human iPSC‐derived parasympathetic neurons enhances responsiveness to gastrointestinal hormones” (FEBS Open Bio, 2023)

Legend:
NPY2R = assay: Ca^2+ imaging, NPY2R‐HEK293T cells; type: cell-based, human; conditions: PYY (3-36) per Fig. S2B, Fluo‐8 AM, Ringer's solution pH 7.4, ΔF/F0, n = 10
Description: (§1) HEK293T cells (Lenti‐X 293T Cell line; TaKaRa, Shiga, Japan) were maintained in Dulbecco's Modified Eagle Medium (DMEM; Fujifilm Wako Pure Chemical Industries, Osaka, Japan) supplemented with 10% fetal bovine serum (Biowest, Nuaillé, France), 1% non‐essential amino acids (NEAA) (Fujifilm Wako Pure Chemical Industries), and 1% penicillin–streptomycin (P/S) (Fujifilm Wako Pure Chemical Industries) and cultured in non‐coated culture plates at 37 °C and in an incubator with 5% CO2. The culture medium was replaced every 2–3 days. At 80–90% confluence, the cell colonies were digested into single cells using TrypLE Express (Thermo Fisher Scientific). The resulting cells were used for lentiviral transfection and agonist experiments.
Figure S1 presents the protocol used for this experiment. Lentiviral vectors were acquired from VectorBuilder (VectorBuilder Japan, Inc., Kanagawa, Japan). […]
Transduced HEK293T and neurons were incubated with 10 μM Fluo‐8 AM, a calcium indicator (AAT Bioquest, Pleasanton, CA, USA), in each culture medium (Cell lines and cell culture and Induction to parasympathetic neurons sections) at 37 °C for 30 min. […] Fluorescence (excitation: 490 nm, emission: 525 nm) was detected using a confocal spinning disk confocal laser scanning unit (CSU‐W1; Yokogawa Electric, Tokyo, Japan) and an LED light (X‐Cite 120LED; Opto Science, Tokyo, Japan). […]

GLP1R = assay: cAMP accumulation assay, GLP1R‐HEK293T cells; type: cell-based, human; conditions: 0, 0.01, 0.1, 1, 10, 100 nM GLP1, 0.5 mM IBMX, 37 °C, 30 min, cAMP ELISA, n = 3
Description: as §1
Figure S1 presents the protocol used for this experiment. Lentiviral vectors were acquired from VectorBuilder (VectorBuilder Japan, Inc., Kanagawa, Japan). The mCherry expression vector (pLV‐Puro‐EF1A‐mCherry) was used as a control. pMD2.g plasmid (Addgene plasmid# 12259; RRID: Addgene 12259, Watertown, MA, USA) and psPAX2 plasmids (Addgene plasmid# 12260; RRID: Addgene 12260) were used as packaging plasmids. To produce lentiviruses, HEK293T cells were transduced with lentiviral vectors and packaging constructs containing 2 μg of lentivirus plasmids, 1 μg of pMD2.g, and 1 μg of psPAX2 plasmids using polyethyleneimine (PEI; Polysciences Inc., Warrington, PA, USA). […]

Substance	Concentration giving response (increased intracellular Ca^2+ concentration) (NPY2R)	cAMP production (GLP1R)
PYY: PYY (4400‐v; Peptide Institute, Inc.); PYY (3–36) in Ca2+ imaging	> 10 nM	–
GLP1: GLP1 (4280‐v; Peptide Institute, Inc.); GLP1 (7–37) in Ca2+ imaging (HAEGTFTSDVSSYLEGQAAKEFIAWLVKGRG; Glucagon-like peptide 1(7-37); UniProt P01275 98-128, looked up)	–	increased cAMP production with increasing GLP1 concentration
